Read-outs that look alike come from different tables or passages of the source.
Assays:
[1] = Shake flask Log D (SFLogD) determination, pH 7.4; assay type: physicochemical; conditions: for logD: shake flask, octan-1-ol / 0.1 M sodium phosphate buffer
Experimental: Shake Flask Log D (SF Log D) Determination:
The Log D determinations were carried out in a similar manner as described by Hay et al. Drug Metabolism and Disposition 37(9), 1864-1870, 2009, the procedure of which is generally described below.
Log D(7.4) Determination. The distribution coefficient of the test compounds between octan-1-ol and 0.1 M sodium phosphate buffer, pH 7.4, was determined by the shake flask methodology in an automated manner. 0.3 mg of compound was dissolved in 300 μL of octan-1-ol and aliquoted in duplicate into a 96-well block. Three hundred microliters of presaturated buffer (2 liters of buffer presaturated with 10 mL of octan-1-ol) was added to the wells, and the solution was vigorously mixed. After centrifugation, the two phases were separated. Ten microliters of a 1:200 dilution of the octan-1-ol layer and 10 μL of a 1:20 dilution of the buffer layer were directly injected onto the high-performance liquid chromatography (HPLC) (for example using an appropriate C18 column, isocratic elution with 90% methanol, 10% water, 2 mM ammonium acetate, and 0.03% formic acid at flow rate of 2 mL/min). The peak areas were corrected for the dilution factors, and the following calculation was applied to determine the mean log D value at pH 7.4 (log D(7.4)): […]

[2] = In vitro intrinsic clearance in human liver microsomes; assay type: in vitro ADME; conditions: for CLint scaled at 2 μM: human, read-out: HLM CLint
Experimental: Determination of In Vitro Intrinsic Clearance in Human Liver Microsomes:
Compounds were prepared as solutions in methanol. The final concentration of methanol in the incubation media was 0.2% (v/v). […] The total incubation volume was 1 mL. The reaction mixture was pre-warmed at 37° C. for 2 min before adding NADPH (1.2 mM). Aliquots (75 μL) of the reaction mixture at 0, 5, 10, 15, and 30 min were added to acetonitrile (200 μL) containing internal standard (terfenadine)(0.05 μg/mL), and the samples were centrifuged at 2500 g for 5 min prior to liquid chromatography/tandem mass spectrometry (LC/MS-MS) analysis of each compound using multiple reaction monitoring (MRM). For control experiments, NADPH was omitted from these incubations.
The microsomal half-life (t1/2) was obtained from a log-linear plot of the substrate depletion vs incubation time and was scaled to hepatic intrinsic clearance (CLint) using the following equation, in which the term t1/2 refers to the in vitro half-life: […]

[3] = system: isolated rat mitochondria; test: Respirometric screening technology (RST) assay; assay type: biochemical; conditions: for RST inhibitory: inhibition of oxidative phosphorylation
Experimental: Respirometric Screening Technology (RST) Assay:
This assay was carried out substantially as described in Hynes et al. Toxicological Sciences 91(1), 186-200 (2006). More specifically, the assay conditions were similar to those described for the “Fluorescence-based assay of mitochondrial respiration” at page 188-189 of the Hynes reference.
Mitochondrial dysfunction has also been noted as a characteristic feature of many chronic illnesses, including bipolar disorder, Parkinson's disease, schizophrenia, depression, autism, and chronic fatigue syndrome (Morris 2015). Mitochondrial dysfunction can be assessed by measuring mitochondrial oxygen consumption in isolated rat mitochondria using luminescent oxygen-sensitive probes in a respirometric screening technology (RST) assay (Hynes 2006); both inhibition and uncoupling of oxidative phosphorylation in the RST assay were measured for compounds in Table 23.

[4] = system: CYP3A4; test: Single point time dependent inhibition (SPTDI) assay; assay type: in vitro ADME, human
Experimental: Single Point Time Dependent Inhibition (SPTDI) Assay:
The objective of this study was to investigate the potential of a series of carboxamides to be time dependent inactivators of CYP3A isozymes, in vitro, using midazolam and testosterone as probe substrates for CYP 3A4/5 activity incubated with pooled human liver microsomes (HLM). Pooled HLMs (0.1-1.0 mg/ml) were pre-incubated with individual carboxamides at initial substrate concentrations of 6 or 10 μM in the presence and absence of NADPH (1.3 mM). Pre-incubations (n=2/compound) were performed for 30 min at 37° C. After pre-incubation, a 10-fold dilution of the incubate (0.02 ml) was added to the probe substrate incubate (0.18 ml) containing the respective probe P450 isozyme substrate (midazolam or testosterone for CYP3A, 1 uM), and was incubated at 37° C. The combined incubation reactions were terminated and analyzed for marker substrate activity (Ex: hydroxyl metabolite of midazolam and 6β hydroxy testesterone) as described previously (Walsky and Obach, 2004; Obach et al., 2007). Terminated incubation mixtures were filtered and analyzed by liquid chromatography (LC)-tandem mass spectrometry (MS/MS) for metabolites as described previously (Walsky and Obach, 2004). To determine kobs,app values, the decrease in natural logarithm of the activity over time was plotted for each inactivator concentration, and kobs,app values were described as the negative slopes of the lines. Inactivation kinetic parameters were determined using nonlinear regression of the data to the expression in eq. 1:
[formula] Statistical significance of kobs between solvent and test incubations was inferred using analysis performed by Yates et al. (Yates P, Eng H, Di L, Obach R S. Drug Metab Dispos 2012; 40:2289-96).
Irreversible inhibition, or time-dependent inhibition (TDI) of cytochrome P450s (CYPs) is generally characterized by an increase in enzyme inhibition with respect to time and inhibitor concentration (Grimm 2009). In cases where enzyme inhibition requires metabolic turnover, the mechanism generally involves the formation of a reactive inhibitory intermediate that may irreversibly inactivate CYPs; this mechanism could cause clinical drug-drug interactions due to inhibition of the relevant CYP responsible for metabolizing the victim drug (Grimm 2009; Rowland Yeo 2011). Hazard assessment for irreversible CYP450 inhibitory potential of CYP3A was performed for several compounds in Table 22 using the single point time dependent inhibition (SPTDI) assay, which measures the pseudo-first order rate constant of inactivation (kobs) at a single high concentration (6-10 μM) of a test compound (Zimmerlin 2011). Based on the analysis performed by Yates (2008), compounds showing a kobs of >0.008 min^−1 in this assay are considered to have a potential for TDI, and kobs<0.008 min^−1 are negative or may have a very weak potential for TDI at CYP3A4.

[5] = pH 7.4, human liver microsomal intrinsic clearance

SMILES: NC(=O)c1ccc(Oc2ccc(CN3CCCC3c3ccccc3)cc2)nc1 (stereo not shown) [Comparator D]
- logD [1]: 2.3
- CLint scaled at 2 μM [2, 5]: 45 mL/min/kg
- RST inhibitory [3]: No effect
- SPTDI CYP3A4 kobs ([4]; single high dose of 10 μM): 0.0065 min⁻¹

SMILES: NC(=O)c1ccc(Oc2ccc(CN3CCC[C@H]3c3cccc(F)c3)cc2)c(F)c1 [Comparator F]
- Log D, in words [1]: significantly higher Log D values
- logD [1]: 3.7
- CLint scaled at 2 μM [2, 5]: 36 mL/min/kg
- RST inhibitory [3]: 66 µM
- risk of time dependent inhibition (TDI) at CYP3A4, in words [4]: potential risk of CYP3A4 TDI
- SPTDI CYP3A4 kobs ([4]; single high dose of 10 μM): 0.0133 min⁻¹
- SPTDI kobs at CYP3A4 ([4]; tested at 10 μM): 0.0133 min⁻¹

SMILES: COc1nn(C)cc1[C@@H]1CCCN1Cc1ccc(Oc2ccc(C(N)=O)cc2)cc1 (single isomer, unassigned) [Example 12]
- Log D, in words [1]: much more in line with drugs that progress to Phase II
- logD [1]: 1.4
- hepatic / metabolic clearance in human liver microsomes, in words [2]: surprisingly low intrinsic metabolic turnover rates
- CLint scaled at 2 μM [2, 5]: 8 mL/min/kg
- CLint scaled at 2 μM ([2]; pH 7.4, human liver microsomes): < 20 mL/min/kg
- activity in the RST assay (inhibition / uncoupling of oxidative phosphorylation), in words [3]: no significant activity
- RST inhibitory [3]: No effect
- risk of time dependent inhibition (TDI) at CYP3A4, in words [4]: low to no significant risk for TDI at CYP3A4
- risk of time dependent inhibition (TDI) at CYP3A4, in words ([4]; listed as Compound 12): not time dependent inactivators of CYP3A4
- SPTDI CYP3A4 kobs ([4]; single high dose of 10 μM): 0.0042 min⁻¹

SMILES: COc1nn(C)cc1C1CCCN1Cc1ccc(Oc2ccc(C(N)=O)cc2F)cc1 (single isomer, unassigned; (-)) [Example 8, (−)-3-Fluoro-4-(4-{[2-(3-methoxy-1-methyl-1H-pyrazol-4-yl)pyrrolidin-1-yl]methyl}phenoxy)benzamide]
- Log D, in words [1]: much more in line with drugs that progress to Phase II
- logD [1]: 1.9
- hepatic / metabolic clearance in human liver microsomes, in words [2]: surprisingly low intrinsic metabolic turnover rates
- CLint scaled at 2 μM [2, 5]: 12 mL/min/kg
- CLint scaled at 2 μM ([2]; pH 7.4, human liver microsomes): < 20 mL/min/kg
- activity in the RST assay (inhibition / uncoupling of oxidative phosphorylation), in words [3]: no significant activity
- RST inhibitory [3]: No effect
- risk of time dependent inhibition (TDI) at CYP3A4, in words [4]: low to no significant risk for TDI at CYP3A4
- risk of time dependent inhibition (TDI) at CYP3A4, in words ([4]; listed as Compound 8): not time dependent inactivators of CYP3A4
- SPTDI CYP3A4 kobs ([4]; single high dose of 10 μM): 0.0044 min⁻¹

SMILES: NC(=O)c1ccc(Oc2ccc(CN3CCCC3c3cccnc3)cc2)c(Cl)c1 (stereo not shown) [Comparator C]
- logD [1]: 3.2
- hepatic / metabolic clearance in human liver microsomes, in words [2]: high hepatic clearance
- CLint scaled at 2 μM [2, 5]: 320 mL/min/kg
- activity in the RST assay (inhibition / uncoupling of oxidative phosphorylation), in words [3]: μM inhibitory activity
- RST inhibitory [3]: 21 µM

SMILES: Cc1nn(C)cc1[C@@H]1CCCN1Cc1ccc(Oc2ccc(C(N)=O)cc2)cc1 [Example 11, 4-(4-{[(2S)-2-(1,3-Dimethyl-1H-pyrazol-4-yl)pyrrolidin-1-yl]methyl}phenoxy)benzamide]
- Log D, in words [1]: much more in line with drugs that progress to Phase II
- logD [1]: 1.9
- hepatic / metabolic clearance in human liver microsomes, in words [2]: surprisingly low intrinsic metabolic turnover rates
- CLint scaled at 2 μM [2, 5]: 20 mL/min/kg
- CLint scaled at 2 μM ([2]; pH 7.4, human liver microsomes): < 20 mL/min/kg
- activity in the RST assay (inhibition / uncoupling of oxidative phosphorylation), in words [3]: no significant activity
- RST inhibitory [3]: No effect
- risk of time dependent inhibition (TDI) at CYP3A4, in words [4]: low to no significant risk for TDI at CYP3A4
- risk of time dependent inhibition (TDI) at CYP3A4, in words ([4]; listed as Compound 11): not time dependent inactivators of CYP3A4
- SPTDI CYP3A4 kobs ([4]; single high dose of 10 μM): 0.0055 min⁻¹

SMILES: NC(=O)c1ccc(Oc2ccc(CN3CCC(c4ccccc4)C3)cc2)nc1 (stereo not shown) [Comparator A, reference compound]
- logD [1]: 1.8
- CLint scaled at 2 μM [2, 5]: 20 mL/min/kg

SMILES: Cc1cc(C)cc([C@@H]2CCCN2Cc2ccc(Oc3ccc(C(N)=O)cc3F)cc2)c1 [Comparator E, reference compound]
- Log D, in words [1]: significantly higher Log D values
- logD [1]: 4.6
- CLint scaled at 2 μM [2, 5]: 30 mL/min/kg
- activity in the RST assay (inhibition / uncoupling of oxidative phosphorylation), in words [3]: μM inhibitory activity
- RST inhibitory [3]: 19 µM
- risk of time dependent inhibition (TDI) at CYP3A4, in words [4]: potential risk of CYP3A4 TDI
- SPTDI CYP3A4 kobs ([4]; single dose of 6 μM): 0.0113^2 min−1
- SPTDI kobs at CYP3A4 ([4]; tested at 6 μM): 0.011 min⁻¹

SMILES: NC(=O)c1ccc(Oc2ccc(CN3CCCCC3c3ccccc3)cc2)nc1 (stereo not shown) [Comparator B]
- logD [1]: 2.7
- hepatic / metabolic clearance in human liver microsomes, in words [2]: high hepatic clearance
- CLint scaled at 2 μM [2, 5]: 89 mL/min/kg
- RST inhibitory [3]: No effect
- SPTDI CYP3A4 kobs ([4]; single high dose of 10 μM): 0.0041 min⁻¹
